The source of these data is US9526766B2, “Potentiation of antibiotic treatment with a protein-lipid complex” (priority 2012, dated 2016).

The term MIC denotes the smallest concentration in the dilution series that meets the test's criterion for growth inhibition.

The test system of test [1] is Acinetobacter baumanni. Briefly: MIC by broth microdilution, antibiotics with and without ALAFAC. The note with it: agent alone. The class given is cell-based. (In broth dilution the organism is exposed to a series of concentrations in liquid medium.)
In test [2] the test system is Moraxella catarrhalis. The description is as above. The class given is cell-based. The following applies: agent alone.
Test [3] concerns Streptococcus pneumoniae. Put plainly: Short-time kill assay on planktonic cultures. The note with it: for Minimum antibiotic concentration for bactericidal (>3 log10) activity, planktonic: within 4-6 hours, antibiotic alone. The class given is cell-based.
For test [4], the system named is Staphylococcus aureus biofilms. Briefly: Static biofilm model, viable counts. It is filed as cell-based. The note with it: for Biofilm bactericidal activity, reduction in viable bacteria: MRSA NRS 70 and MSSA 11090306 biofilms, 24 hours, ALAFAC 200 μg/mL (12 μM), methicillin 250 μg/mL (660 μM); for Biofilm bactericidal activity, reduction in viable bacteria / Biofilm viability: alone or combined; for Biofilm death / reduction in biofilm biomass: methicillin 1,000 μg/ml monotherapy, combination with 100 μg/ml ALAFAC; for Minimum antibiotic concentration for bactericidal (>3 log10) activity on biofilms: 12 hours, antibiotic alone; for Biofilm viability: NRS 1 and NRS 384 biofilms, ALAFAC 500 μg/ml (30 μM), gentamicin 50 μg/ml (105 μM). On the procedure:
Static Biofilm Model. Staphylococci were grown in TSB to mid-logarithmic phase (OD600=0.5), washed, and resuspended in fresh pre-warmed medium to a density of 2×10^4 CFU in 500 μl volume, and suspensions were used to seed polystyrene 24-well plates. Bacteria were cultured at 37° C. for 12 hours, after which biofilms were washed with PBS to eliminate planktonic bacteria and were exposed to TSB with indicated concentrations of ALAFAC and/or antibiotics for 24 hours at 37° C. Biofilms were then washed in PBS, sonicated and detached by scraping the surface in the presence of 100 μL PBS followed by a rinse with 100 μL PBS. Collected cells were vortexed twice for 20 seconds at high speed and the dispersed biofilm cells were first observed by microscopy to ensure proper dispersion and then diluted in a 10-fold dilution series where 100 μl of each dilution was plated on blood agar plates to determine viable CFUs per ml after overnight growth at 37° C. Colony counts from plates carrying 20-200 colonies were used to determine the viable counts and are reported as the total number of colony-forming units per biofilm.

Test [5] has as its system S. pneumoniae D39. Briefly: Autolysis by optical density at 600 nm. It is filed as cell-based, Streptococcus pneumoniae. The source says:
Most agents that kill pneumococci, including […] and cell wall-active anti-bacterials activate the major autolysin LytA to induce lysis of the bacteria, which can easily be detected by eye as a clearing of the bacterial suspension upon treatment and measured by a decrease in OD600 nm over time. In comparison, antibiotics acting on bacterial DNA, RNA, or protein synthesis show reduced, though still significant, levels of cell lysis. However, during our combination treatments with […] and gentamicin above we observed no detectable lysis. […] The lack of lysis from combination treatment may be beneficial for the host in reducing the host inflammation associated with bacterial components after lysis.

[6] abbreviates: D39, 1 hour, ALAFAC 50 μg/ml, gentamicin 50 μg/ml, alone or combined, 7.7 log10 inoculum.
[7] abbreviates: sublethal ALAFAC (50 μg/ml), low gentamicin, alone or combined.

Entries after “also recorded” stand apart in the source; their conditions may differ. Like-named read-outs stand apart in the source and are kept apart here.

Consider `CC1(C)S[C@@H]2[C@H](NC(=O)Cc3ccccc3)C(=O)N2[C@H]1C(=O)O` [Penicillin, penicillin G], for which the minimum inhibitory concentration (MIC) is over 100 µg/mL in test [1] (A. baumanni AB307); over 100 µg/mL in test [1] (A. baumanni AB979); “exceeded 100 μg/ml” in test [1] (A. baumanni AB979, listed as penicillin); over 100 µg/mL in test [1] (Acinetobacter, A. baumanni AB307, read-out: MIC); over 50 µg/mL in test [2] (M. catarrhalis 7169 (MC7169)); over 50 µg/mL in test [2] (M. catarrhalis BC8 (MCBC8)). Besides, the minimal inhibitory concentration (MIC) result was “exceeded 50 μg/ml” in test [2] (M. catarrhalis BC8 (MCBC8), listed as penicillin) and over 50 µg/mL in test [2] (Moraxella catarrhalis, M. catarrhalis 7169 (MC7169), read-out: MIC). Further, the “Short-time killing (death of inoculum)” value in test [3] (D39, 4 hours, ALAFAC 50 μg/ml, penicillin G 20 μg/ml, alone or combined, 7.5 log10 inoculum) is on record as “no bactericidal activity; also recorded: no death”. Further, the Short-time killing is recorded as at most 2.6 log10 in test [3] (D39, penicillin G alone at 5,000 μg/ml, 4 hours); at most 2.6 log10 in test [3] (D39, penicillin alone at 50-fold higher concentration (1,000 μg/ml), 4 hours); “no bactericidal activity” in test [3] (SP670, penicillin 30 μg/mL alone or with ALAFAC 50 μg/mL, 4 hours). For the same molecule, the Bactericidal activity alone entry in test [3] (D39 and EF3030, 1 hour, penicillin G up to 5,000 μg/ml, erythromycin up to 1,000 μg/ml) is “lacked any bactericidal activity”. Further, the “Minimum antibiotic concentration for bactericidal (>3 log10) activity, planktonic” value in test [3] (S. pneumoniae D39) and in test [3] (S. pneumoniae SP670) was >5,000 μg/ml each time.
For `COc1cccc(OC)c1C(=O)N[C@@H]1C(=O)N2[C@@H]1SC(C)(C)[C@@H]2C(=O)O` [Methicillin, methicillin], the “Biofilm bactericidal activity, reduction in viable bacteria” value in test [4] was “failed to induce bactericidal activity”. For the same molecule, the “Biofilm death / reduction in biofilm biomass” value in test [4] (MRSA NRS70 biofilm) was 0.16 log10; in test [4] (MSSA 11090306 biofilm), 1 log10. Besides, the “Minimum antibiotic concentration for bactericidal (>3 log10) activity on biofilms” value in test [4] (S. aureus 11090306 biofilm) and in test [4] (S. aureus NRS70 biofilm) was over 1000 μg/ml in each case.
For gentamicin, the minimum inhibitory concentration (MIC) in test [1] (A. baumanni AB307) was determined as 36 µg/mL; in test [1] (A. baumanni AB979) it was 2.5 µg/mL; in test [2] (M. catarrhalis 7169 (MC7169)), 25 µg/mL; in test [2] (M. catarrhalis BC8 (MCBC8)) it was 25 µg/mL. Further, the Short-time killing result in test [3] (setting [6]) is reported as “insignificant killing”; in test [3] (gentamicin alone at high concentrations, up to 1,000 μg/ml, 1 hour), 1.4 log10; in test [3] (gentamicin alone at high concentrations, up to 1,000 μg/ml, 1 hour, listed as gentamicin) it was at most 1.4 log10. Moreover, the “Minimum antibiotic concentration for bactericidal (>3 log10) activity, planktonic” value in test [3] (S. pneumoniae D39) and in test [3] (S. pneumoniae EF3030) was over 500 μg/ml in each case. Besides, the Biofilm viability entry in test [4] was “Neither ALAFAC (500 μg/ml; 30 μM) nor gentamicin (50 μg/ml; 105 μM) had any effect”. Further, the “Autolysis (OD600)” value in test [5] (setting [7]) was “failed to lyse”.

B1: ALAFAC: non-covalent complex of alpha-lactalbumin and fatty acid (oleic acid); labeled HAMLET or HL in drawings and tables (protein, UniProt P00709 20-142, looked up)
Alpha-lactalbumin: KQFTKCELSQLLKDIDGYGGIALPELICTMFHTSGYDTQAIVENNESTEYGLFQISNKLWCKSSQVPQSRNICDISCDKFLDDDITDDIMCAKKILDIKGIDYWLAHKALCTEKLEQWLCEKL
modifications: complexed with oleic acid
In the case of B1, the Short-time killing entry in test [3] (setting [6]) was “insignificant killing”; in test [3] (D39, 4 hours, ALAFAC 50 μg/ml, erythromycin 200 μg/ml, alone or combined, 7.2 log10 inoculum) it was “insignificant bactericidal activity”. For the same molecule, the “Fold higher concentration of ALAFAC alone required for activity similar to the combination” value in test [3] (D39, versus 50 μg/ml ALAFAC + 20 μg/ml penicillin G, 4 hours) is listed as over 5 fold. For the same molecule, the “Concentration required to eradicate each inoculum” value in test [3] (all pneumococcal strains, 1 hour) was “approximately 15 times the MIC”. For the same molecule, in test [3] (time-kill assay, 1 hour), the “Concentration to eradicate an inoculum of 10^8 pneumococci” value worked out at 300 μg/ml. Moreover, the “Biofilm bactericidal activity, reduction in viable bacteria” value in test [4] is recorded as “failed to induce bactericidal activity”. The “Biofilm death / reduction in biofilm biomass” value in test [4] (MRSA NRS70 biofilm) and in test [4] (MSSA 11090306 biofilm) was “no death” throughout. For the same molecule, the Biofilm viability result in test [4] is listed as “Neither ALAFAC (500 μg/ml; 30 μM) nor gentamicin (50 μg/ml; 105 μM) had any effect”. In addition, the “Autolysis (OD600)” value in test [5] (ALAFAC alone at a lethal concentration (250 μg/ml)) was “rapid lysis”; in test [5] (setting [7]), “small decrease in optical density”.
